In PubChem BioAssay AID2060509 (Molecular Pharmacology Branch, DTP, NCI, 2025):
Values joined by “and” are separate entries in the source; they are usually repeats but may differ in a detail not shown here. Identical values can stand only once.

System: 485176-168-R4-J1-PDC spheroids with HUVEC/MSC, viability
Test: Anticancer human tumor 485176-168-R4-J1-PDC patient-derived pancreatic adenocarcinoma cell line growth inhibition [GQUAD]
Conditions: for viability, T/C: stronger effect = lower value
From the text: DNA G-quadruplex Stabilizer Agents in Combinations in Complex Spheroids
A high-throughput screen of multi-cell type tumor spheroids was designed to identify active combinations of DNA G-quadruplex stabilizer agents and targeted small molecules. Complex spheroids include a stromal component modeled by human endothelial cells (HUVEC) and fibroblasts modeled by human mesenchymal stem cells (MSCs). The concentration ranges selected for each drug and investigational agent were based upon clinically achievable concentrations if the clinical Cmax of the agent was known.
Compounds. The drugs and investigational agents: pidnarulex (CX-5461; NSC782164), APTO-253 (NSC789042), BRACO-19 (NSC847499), peposertib (NSC802822), ceralasertib (NSC780249), elimusertib (NSC800525), camonsertib (NSC841442), AZD-1390 (NSC803789), olaparib (NSC753686), talazoparib (NSC767125), ART-558 (NSC835418), sotorasib (NSC818433), MRTX-1133 (NSC836407), SN-38 (NSC673596), topotecan (NSC609699), etoposide (NSC141540), doxorubicin (NSC123127), gemcitabine (NSC613327), 5-fluorouracil (NSC19893), paclitaxel (NSC125973), vemurafenib (NSC761431), panobinostat (NSC761190), R-306465 (JNJ-16241199; NSC773264), adavosertib (NSC754352), TP-3654 (NSC805149), carboplatin (NSC241240), KSQ-4279 (NSC840948), and staurosporine (NSC755774) were obtained from the National Cancer Institute (NCI) Developmental Therapeutics Program Chemical Repository (34). The FDA-approved anticancer drug set is available from the NCI Developmental Therapeutics Program. […] The stock solutions were prepared in dimethyl sulfoxide (DMSO, Sigma-Aldrich, St. Louis, MO, cat. D2650) at 800-fold the tested concentration and stored at -70 degrees C prior to their use. All drugs and investigational agents were tested over a range starting from a high concentration at or near the clinical Cmax and decreasing in half-log increments. If the clinical Cmax for an agent had not been determined, the highest concentration tested was 10 microM.
2.3 Cell Culture. All cells were maintained in an incubator at 37 degrees C and 5% CO2 with 95% humidity. The PDC lines were cultured according to standard operating procedures established by the NCI PDMR. All PDCs were thawed and cultured in Matrigel-coated flasks prepared with a working solution of 1X Ham's F-12 nutrient mix, without supplementation (Invitrogen, cat. 11765054), 100 U/mL penicillin-streptomycin (Invitrogen, cat. 15140122), and 2.5% Matrigel (Corning Inc., cat. 354248) for the first three passages. The 857933-349-R-J2-PDC line was cultured in 6C/Colon 1B media, which includes advanced DMEM/F-12 (Thermo Fisher Scientific, cat. 12634028), 10 mM HEPES (Thermo Fisher Scientific, cat. 15630080), 1X GlutaMAX supplement (Thermo Fisher Scientific, cat. 35050061), 0.1 mg/mL primocin (InvivoGen, cat. ant-pm-2), 10% defined fetal bovine serum, heat inactivated (HyClone Laboratories Inc., cat. SH30070.03HI), 50% L-WRN conditioned media (ATCC, cat. CRL-3276), 1.25 mM N-Acetyl-L-cysteine (Sigma-Aldrich, cat. A9165), 10 mM nicotinamide (Sigma-Aldrich, cat. N0636), 1X B-27 supplement (Thermo Fisher Scientific, cat. 17504044), 1X N-2 supplement (Thermo Fisher Scientific, cat. 17502048), 10 microM Y-27632 dihydrochloride (Tocris Bioscience, cat. 1254), and 50 ng/mL human EGF recombinant protein (Thermo Fisher Scientific, cat. PHG0311). The 485176-168-R4-J1-PDC line was cultured in Panc media, which includes all 6C/Colon 1B media components plus 100 ng/mL human FGF-10 (Thermo Fisher Scientific, cat. 100-26), 500 nM SB-431542 (Selleckchem, cat. S1067), and gastrin (Tocris, cat. 3006).
[…]
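Further: spheroids exposed to compounds for seven days before readout.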
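Wherever viability, T/C is given: percent viability relative to DMSO vehicle control wells as 100%.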

SMILES: C#Cc1c(F)ccc2cc(O)cc(-c3ncc4c(N5CC6CCC(C5)N6)nc(OCC56CCCN5CC(F)C6)nc4c3F)c12 (centres undefined)
- viability, T/C (compound 0.0316 µM): 95.2% and 109% and 105%
- viability, T/C (compound 0.1 µM): 89% and 86.3% and 108%
- viability, T/C (compound 0.316 µM): 92.7% and 88.4% and 95.7%
- viability, T/C (compound 1 µM): 89.8% and 104% and 109%
- viability, T/C (compound 3.16 µM): 104% and 96.4% and 97.2%
- viability, T/C (compound 10 µM): 95.4% and 93.5% and 104%
- IC50 (curve of compound): > 10000 nM

SMILES: C=CC(=O)N1CCN(c2nc(=O)n(-c3c(C)ccnc3C(C)C)c3nc(-c4c(O)cccc4F)c(F)cc23)C(C)C1 (centres undefined)
- viability, T/C (compound 0.0316 µM): 94.5% and 108% and 99.3%
- viability, T/C (compound 0.1 µM): 80.1% and 83.2% and 93.6%
- viability, T/C (compound 0.316 µM): 115% and 110% and 111%
- viability, T/C (compound 1 µM): 91.1% and 122% and 103%
- viability, T/C (compound 3.16 µM): 113% and 109% and 111%
- viability, T/C (compound 10 µM): 96.8% and 114% and 107%
- IC50 (curve of compound): > 10000 nM

SMILES: C=CCn1c(=O)c2cnc(Nc3ccc(N4CCN(C)CC4)cc3)nc2n1-c1cccc(C(C)(C)O)n1
- viability, T/C (compound 0.0316 µM): 101% and 96.5% and 125%
- viability, T/C (compound 0.1 µM): 85.2% and 103% and 79.7%
- viability, T/C (compound 0.316 µM): 58% and 60.3% and 58.8%
- viability, T/C (compound 1 µM): 20.7% and 23% and 14.2%
- viability, T/C (compound 3.16 µM): 7.67% and 7.8% and 5.95%
- viability, T/C (compound 10 µM): 5.42% and 4.01% and 4.35%
- IC50 (curve of compound): 387 nM and 453 nM and 300 nM

SMILES: CC(=O)O[C@H]1C(=O)[C@@]2(C)[C@H]([C@H](OC(=O)c3ccccc3)[C@]3(O)C[C@H](OC(=O)[C@H](O)[C@@H](NC(=O)c4ccccc4)c4ccccc4)C(C)=C1C3(C)C)[C@]1(OC(C)=O)CO[C@@H]1C[C@@H]2O
- viability, T/C (compound 0.0316 µM): 33.5% and 33.7% and 29.3%
- viability, T/C (compound 0.1 µM): 10.2% and 14.9% and 9.73%
- viability, T/C (compound 0.316 µM): 12.3% and 11.3% and 10.6%
- viability, T/C (compound 1 µM): 10.9% and 13.4% and 9.36%
- viability, T/C (compound 3.16 µM): 11% and 13.5% and 10.1%
- viability, T/C (compound 10 µM): 13.7% and 11.4% and 9.37%
- IC50 (curve of compound): < 31.6 nM

SMILES: CC(C)(O)C1CCC(Nc2ccc3ncc(-c4cccc(C(F)(F)F)c4)n3n2)CC1 (centres undefined)
- viability, T/C (compound 0.0316 µM): 95.2% and 95.5% and 94.6%
- viability, T/C (compound 0.1 µM): 110% and 90.6% and 87.2%
- viability, T/C (compound 0.316 µM): 83.9% and 93.9% and 92.1%
- viability, T/C (compound 1 µM): 84.3% and 91.6% and 77.9%
- viability, T/C (compound 3.16 µM): 53.8% and 62.9% and 60.7%
- viability, T/C (compound 10 µM): 57.8% and 57.9% and 56.4%
- IC50 (curve of compound): > 10000 nM

SMILES: CC(C)n1c(=O)n(C)c2cnc3cc(F)c(-c4ccc(OCCCN5CCCCC5)nc4)cc3c21
- viability, T/C (compound 0.0316 µM): 91.6% and 91.4% and 87.6%
- viability, T/C (compound 0.1 µM): 84.9% and 80% and 85%
- viability, T/C (compound 0.316 µM): 92.1% and 95.7% and 88.2%
- viability, T/C (compound 1 µM): 91.2% and 77.1% and 86.4%
- viability, T/C (compound 3.16 µM): 82.5% and 93.8% and 83.5%
- viability, T/C (compound 10 µM): 78.8% and 75.8% and 72.5%
- IC50 (curve of compound): > 10000 nM

SMILES: CC1COCCN1c1cc(-c2ccnn2C)c2ccnc(-c3ccn[nH]3)c2n1 (centres undefined)
- viability, T/C (compound 0.0316 µM): 76.2% and 71.6% and 87.6%
- viability, T/C (compound 0.1 µM): 39.2% and 47.5% and 37.8%
- viability, T/C (compound 0.316 µM): 18.1% and 14.2% and 15.9%
- viability, T/C (compound 1 µM): 10.4% and 10.2% and 9.3%
- viability, T/C (compound 3.16 µM): 11.3% and 9.69% and 10%
- viability, T/C (compound 10 µM): 11.9% and 12.4% and 10.7%
- IC50 (curve of compound): 71.6 nM and 88.8 nM and 75.5 nM

SMILES: CC1COCCN1c1cc(C2(O)CC3CCC(C2)O3)c2cnn(-c3ccn[nH]3)c2n1 (centres undefined)
- viability, T/C (compound 0.0316 µM): 68% and 73.8% and 81.9%
- viability, T/C (compound 0.1 µM): 32.8% and 40.7% and 53.4%
- viability, T/C (compound 0.316 µM): 11.7% and 19.7% and 16.1%
- viability, T/C (compound 1 µM): 8.14% and 9.02% and 10.2%
- viability, T/C (compound 3.16 µM): 8.91% and 11.7% and 10.2%
- viability, T/C (compound 10 µM): 9.41% and 8.55% and 9.34%
- IC50 (curve of compound): 57 nM and 72.7 nM and 111 nM

SMILES: CC1COCCN1c1cc(C2(S(C)(=N)=O)CC2)nc(-c2ccnc3[nH]ccc23)n1 (centres undefined)
- viability, T/C (compound 0.0316 µM): 91.4% and 102% and 101%
- viability, T/C (compound 0.1 µM): 98.7% and 102% and 97.1%
- viability, T/C (compound 0.316 µM): 93.1% and 96.5% and 101%
- viability, T/C (compound 1 µM): 56% and 70.9% and 59.4%
- viability, T/C (compound 3.16 µM): 36.2% and 34.4% and 72.4%
- viability, T/C (compound 10 µM): 14.5% and 16.4% and 12.8%
- IC50 (curve of compound): 1550 nM and 1930 nM and 3980 nM

SMILES: CCCS(=O)(=O)Nc1ccc(F)c(C(=O)c2c[nH]c3ncc(-c4ccc(Cl)cc4)cc23)c1F
- viability, T/C (compound 0.0316 µM): 84.4% and 98.5% and 96.2%
- viability, T/C (compound 0.1 µM): 94.7% and 85.4% and 64.8%
- viability, T/C (compound 0.316 µM): 89.7% and 87.6% and 85%
- viability, T/C (compound 1 µM): 82% and 83.2% and 77%
- viability, T/C (compound 3.16 µM): 82.2% and 75.4% and 73.2%
- viability, T/C (compound 10 µM): 71.2% and 70.3% and 66.2%
- IC50 (curve of compound): > 10000 nM

SMILES: CC[C@@]1(O)C(=O)OCc2c1cc1n(c2=O)Cc2cc3c(CN(C)C)c(O)ccc3nc2-1
- viability, T/C (compound 0.000999 µM): 103% and 99% and 108%
- viability, T/C (compound 0.00316 µM): 99.1% and 96.4% and 81%
- viability, T/C (compound 0.00999 µM): 89.2% and 94.7% and 93%
- viability, T/C (compound 0.0316 µM): 64.6% and 100% and 90.4%
- viability, T/C (compound 0.0999 µM): 54.2% and 66.9% and 58.7%
- viability, T/C (compound 0.316 µM): 31.3% and 35.5% (2×)
- IC50 (curve of compound): 102 nM and 185 nM and 154 nM

SMILES: CCc1c2c(nc3ccc(O)cc13)-c1cc3c(c(=O)n1C2)COC(=O)[C@]3(O)CC
- viability, T/C (compound 0.000999 µM): 70.1% and 80.1% and 81.3%
- viability, T/C (compound 0.00316 µM): 44.8% and 56.4% and 56%
- viability, T/C (compound 0.00999 µM): 36% and 50.5% and 37.6%
- viability, T/C (compound 0.0316 µM): 25.5% and 22.1% and 19.9%
- viability, T/C (compound 0.0999 µM): 14.2% and 11.4% and 13.2%
- viability, T/C (compound 0.316 µM): 5.64% and 4.31% and 3.94%
- IC50 (curve of compound): 3.08 nM and 6.61 nM and 4.61 nM

SMILES: CN(C)c1ccc(Nc2c3ccc(NC(=O)CCN4CCCC4)cc3nc3cc(NC(=O)CCN4CCCC4)ccc23)cc1
- viability, T/C (compound 0.0316 µM): 101% [middle of 12 runs]
- viability, T/C (compound 0.316 µM): 102% [middle of 12 runs]
- viability, T/C (compound 3.16 µM): 93.2% [middle of 12 runs]
- viability, T/C (compound 10 µM): 84.2% [middle of 12 runs]
- IC50 (compound alone, run of 03/26/2024): > 10000 nM
